Assay results published in ChEMBL document CHEMBL1201862, “PubChem BioAssay data set” (2004).
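Grown in 96-well plates, cells were treated for 48 hours with each compound at five concentrations. Insufficient inhibition: endpoint recorded as highest concentration tested. At the GI50, growth is halved.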 The source made the active and inactive calls. Cut-off read from the data, not from the text of the source: active = GI50 up to about 1.1 µM and inactive = higher.

Key:
Assay in all cases: growth of human tumour cells (NCI), 48 h
SK-MEL-5 = tested on: SK-MEL-5
MDA-N = tested on: MDA-N
A549 = tested on: A549
PC-3 = tested on: PC-3
UO-31 = tested on: UO-31
DU-145 = tested on: DU-145
OVCAR-8 = tested on: OVCAR-8
HOP-92 = tested on: HOP-92
NCI-H23 = tested on: NCI-H23
Hs-578T = tested on: Hs-578T
SF-268 = tested on: SF-268
NCI/ADR-RES = tested on: NCI/ADR-RES
HCC 2998 = tested on: HCC 2998
NCI-H226 = tested on: NCI-H226
SK-MEL-28 = tested on: SK-MEL-28
M14 = tested on: M14
Malme-3M = tested on: Malme-3M
MOLT-4 = tested on: MOLT-4
CCRF-CEM = tested on: CCRF-CEM
SR = tested on: SR

| SMILES | GI50 (SK-MEL-5) | GI50 (MDA-N) | GI50 (A549) | GI50 (PC-3) | GI50 (UO-31) | GI50 (DU-145) | GI50 (OVCAR-8) | GI50 (HOP-92) | GI50 (NCI-H23) | GI50 (Hs-578T) | GI50 (SF-268) | GI50 (NCI/ADR-RES) | GI50 (HCC 2998) | GI50 (NCI-H226) | GI50 (SK-MEL-28) | GI50 (M14) | GI50 (Malme-3M) | GI50 (MOLT-4) | GI50 (CCRF-CEM) | GI50 (SR) |
| --- | --- | --- | --- | --- | --- | --- | --- | --- | --- | --- | --- | --- | --- | --- | --- | --- | --- | --- | --- | --- |
| OC(c1cc(-c2ccc(Cl)cc2)nc2ccccc12)C1CCCCN1 (stereo not drawn) | 2.24 µM (inactive) | 1.95 µM (inactive) | 1.84 µM (inactive) | 1.97 µM (inactive) | 1.15 µM (inactive) | 1.74 µM (inactive) | 2.08 µM (inactive) | 3.37 µM (inactive) | 2.15 µM (inactive) | 1.99 µM (inactive) | 2.02 µM (inactive) | 2.38 µM (inactive) | 2.08 µM (inactive) | 4.21 µM (inactive) | 1.87 µM (inactive) | 1.77 µM (inactive) | 0.873 µM (active) | 2.37 µM (inactive) | 0.498 µM (active) |  |
| c1cc(CCN2CCCCC2)ccn1 | > 100 µM (inactive) | > 100 µM (inactive) | > 100 µM (inactive) | > 100 µM (inactive) | > 100 µM (inactive) | > 100 µM (inactive) | > 100 µM (inactive) | > 100 µM (inactive) | > 100 µM (inactive) | > 100 µM (inactive) | > 100 µM (inactive) | > 100 µM (inactive) |  | > 100 µM (inactive) | > 100 µM (inactive) | > 100 µM (inactive) | > 100 µM (inactive) | 35.2 µM (inactive) |  | 33.3 µM (inactive) |
| O=c1[nH]cnc2cccc(Cl)c12 | > 100 µM (inactive) | > 100 µM (inactive) | > 100 µM (inactive) | > 100 µM (inactive) | > 100 µM (inactive) | > 100 µM (inactive) | > 100 µM (inactive) |  | > 100 µM (inactive) | > 100 µM (inactive) | > 100 µM (inactive) | > 100 µM (inactive) | > 100 µM (inactive) | > 100 µM (inactive) | > 100 µM (inactive) | > 100 µM (inactive) | > 100 µM (inactive) | > 100 µM (inactive) | > 100 µM (inactive) | > 100 µM (inactive) |
| Cc1ccsc1/C=N/Nc1ccccn1 | 25.9 µM (inactive) | 50.6 µM (inactive) | 7.4 µM (inactive) | 39.5 µM (inactive) | 71.3 µM (inactive) | 55.6 µM (inactive) | 66.1 µM (inactive) | 49.3 µM (inactive) | 70.6 µM (inactive) | > 100 µM (inactive) | > 100 µM (inactive) | 45.3 µM (inactive) | 99.5 µM (inactive) | > 100 µM (inactive) | 98.6 µM (inactive) | 54 µM (inactive) | 34.8 µM (inactive) | 32.8 µM (inactive) | 40.5 µM (inactive) |  |
| CN(/N=C/c1cccs1)c1ccc(Cl)cc1[N+](=O)[O-] | 36.9 µM (inactive) | 3.84 µM (inactive) | 30.3 µM (inactive) | 38.4 µM (inactive) | 36.9 µM (inactive) | 64.4 µM (inactive) | 40.5 µM (inactive) |  | 35.3 µM (inactive) | 25.4 µM (inactive) | 83.4 µM (inactive) | 18.9 µM (inactive) | 25.8 µM (inactive) | 19.8 µM (inactive) | 78.5 µM (inactive) | 34.2 µM (inactive) |  | 17.1 µM (inactive) | 19.1 µM (inactive) | 5.71 µM (inactive) |
| CC(=O)Nc1ccc(S(=O)(=O)Nc2nc(-c3ccc(Cl)cc3)cc(N3N=C(c4ccc(Br)cc4)CC3c3ccccc3)n2)cc1 (stereo not drawn) |  | 5.51 µM (inactive) | 17.7 µM (inactive) | 14 µM (inactive) | 15.4 µM (inactive) | 20.4 µM (inactive) | 17.9 µM (inactive) | 13.7 µM (inactive) | 16.6 µM (inactive) | 11.1 µM (inactive) |  | 17.1 µM (inactive) |  | 12.9 µM (inactive) | 18.6 µM (inactive) | 18.1 µM (inactive) | 16.1 µM (inactive) | 17 µM (inactive) | 26.1 µM (inactive) | 16.2 µM (inactive) |
| Cc1ccc(S(=O)(=O)c2scc(-c3ccccc3)c2C)cc1 | 40.2 µM (inactive) | > 100 µM (inactive) | 57.8 µM (inactive) | 89.3 µM (inactive) | > 100 µM (inactive) | 93.5 µM (inactive) | > 100 µM (inactive) | 72.4 µM (inactive) | 38.1 µM (inactive) | > 100 µM (inactive) | > 100 µM (inactive) | 35.5 µM (inactive) | > 100 µM (inactive) | > 100 µM (inactive) | > 100 µM (inactive) | > 100 µM (inactive) | > 100 µM (inactive) | 42.7 µM (inactive) |  |  |
